Measured values published in the supplement of paper PMC11208160.

Assay: recombinant barcode read abundance after kanamycin selection (control-corrected) (log10(CPM+1)); higher = more efficient recombination; sequences stand for … in AGTGCAGAGAAAATCGGCCAGTTTTCTCTGCCTGCAGTCCGCATGCCGT…ATTTATGCAGCGGACTGCCTTTCTCCCAAAGTGATAAACCGGACAGTATCATGGACCGGTTTTCCCGGTAATCCGTATTTGCAAGGTTGGTTTCACT; site = the 11-nt target
How it was run: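 The screen was pooled in E. coli and paired targets with IS621 bridge RNA target-binding loops. Recombination efficiency is taken from barcode counts per million at recombinant junctions, averaged and adjusted against the control. Values, in the form log10(CPM+1), come from duplicate plating on chloramphenicol/ampicillin LB agar or on chloramphenicol/ampicillin/kanamycin with 0.1 mM IPTG.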

Row | Sequence | recombinant barcode read abundance (log10)
1 | GGGCGTGTGTGGGTTCTAACCTGTTGCCTAG [GGGCGTGCTAG_LTGcore_TG_RTGcore_CT] (site GGGCGTGCTAG) (LTG core: TG, RTG core: CT) | 0.228
2 | GGTGCCCAGTGGGTTCTAACCTGTTGCCGAG [GGTGCCCCTCG_LTGcore_AG_RTGcore_CT] (site GGTGCCCCTCG) (LTG core: AG, RTG core: CT) | 0.202
3 | GGTGCCCCATGGGTTCTAACCTGTTGCCGAG [GGTGCCCCTCG_LTGcore_CA_RTGcore_CT] (site GGTGCCCCTCG) (LTG core: CA, RTG core: CT) | 0.158
4 | GGTGCCCCATGGGTTCTAACCTGTTGCCGTG [GGTGCCCCTCG_LTGcore_CA_RTGcore_CA] (site GGTGCCCCTCG) (LTG core: CA, RTG core: CA) | 0.0735
5 | GGTGCCCCTTGGGTTCTAACCTGTTGCCGTA [GGTGCCCCTCG_LTGcore_CT_RTGcore_TA] (site GGTGCCCCTCG) (LTG core: CT, RTG core: TA) | 0.258
6 | GGTGCCCGATGGGTTCTAACCTGTTGCCGAG [GGTGCCCCTCG_LTGcore_GA_RTGcore_CT] (site GGTGCCCCTCG) (LTG core: GA, RTG core: CT) | 0.0132
7 | GGTGCCCGCTGGGTTCTAACCTGTTGCCGAG [GGTGCCCCTCG_LTGcore_GC_RTGcore_CT] (site GGTGCCCCTCG) (LTG core: GC, RTG core: CT) | 0.0494
8 | GGTGCCCGGTGGGTTCTAACCTGTTGCCGAG [GGTGCCCCTCG_LTGcore_GG_RTGcore_CT] (site GGTGCCCCTCG) (LTG core: GG, RTG core: CT) | 0.0774
9 | GGTGCCCGTTGGGTTCTAACCTGTTGCCGAC [GGTGCCCCTCG_LTGcore_GT_RTGcore_GT] (site GGTGCCCCTCG) (LTG core: GT, RTG core: GT) | 0.151
10 | GGTGCCCTATGGGTTCTAACCTGTTGCCGAG [GGTGCCCCTCG_LTGcore_TA_RTGcore_CT] (site GGTGCCCCTCG) (LTG core: TA, RTG core: CT) | 0.122
11 | GGTGCCCTCTGGGTTCTAACCTGTTGCCGGA [GGTGCCCCTCG_LTGcore_TC_RTGcore_TC] (site GGTGCCCCTCG) (LTG core: TC, RTG core: TC) | 0.0162
12 | GGTGCCCTGTGGGTTCTAACCTGTTGCCGCA [GGTGCCCCTCG_LTGcore_TG_RTGcore_TG] (site GGTGCCCCTCG) (LTG core: TG, RTG core: TG) | 0.15
13 | GGTGCCCTTTGGGTTCTAACCTGTTGCCGAG [GGTGCCCCTCG_LTGcore_TT_RTGcore_CT] (site GGTGCCCCTCG) (LTG core: TT, RTG core: CT) | 0.0486
14 | GTCGCCCATTGGGTTCTAACCTGTTGCTAAG [GTCGCCCCTTA_LTGcore_AT_RTGcore_CT] (site GTCGCCCCTTA) (LTG core: AT, RTG core: CT) | 0.926
15 | GTCGCCCCCTGGGTTCTAACCTGTTGCTAGG [GTCGCCCCTTA_LTGcore_CC_RTGcore_CC] (site GTCGCCCCTTA) (LTG core: CC, RTG core: CC) | 0.416
16 | GTCGCCCCTTGGGTTCTAACCTGTTGCTAAA [GTCGCCCCTTA_LTGcore_CT_RTGcore_TT] (site GTCGCCCCTTA) (LTG core: CT, RTG core: TT) | 0.194
17 | GTCGCCCCTTGGGTTCTAACCTGTTGCTACA [GTCGCCCCTTA_LTGcore_CT_RTGcore_TG] (site GTCGCCCCTTA) (LTG core: CT, RTG core: TG) | 0.151
18 | GTCGCCCCTTGGGTTCTAACCTGTTGCTACC [GTCGCCCCTTA_LTGcore_CT_RTGcore_GG] (site GTCGCCCCTTA) (LTG core: CT, RTG core: GG) | 0.487
19 | GTCGCCCCTTGGGTTCTAACCTGTTGCTACT [GTCGCCCCTTA_LTGcore_CT_RTGcore_AG] (site GTCGCCCCTTA) (LTG core: CT, RTG core: AG) | 0.19
